Results: ChEMBL document CHEMBL1123726, “Resolution of racemic carbocyclic analogues of purine nucleosides through the action of adenosine deaminase. Antiviral activity of the carbocyclic 2'-deoxyguanosine enantiomers” (1987)
Converted amounts (≈) assume the structure as drawn.

How the values were obtained:
Vero [1] = assay: Minimum inhibitory concentration was determined for inhibition of cytopathogenic effects produced by strain 377 (TK+) Herpes simplex virus type 1 (HSV-1) in vero cells.; assay type: functional, cell-based; conditions: Chlorocebus sabaeus
Vero [2] = assay: Minimum inhibitory concentration was determined for inhibition of cytopathogenic effects produced by strain MS Herpes simplex virus type 2 (HSV-2) in vero cells.; assay type: functional, cell-based; conditions: Chlorocebus sabaeus
Vero [3] = assay: Compound was evaluated for the virus rating (VR) in test 1 against Herpes simplex virus type 1 (HSV-1) in vero cells.; assay type: functional, Chlorocebus sabaeus
Vero [4] = assay: Compound was evaluated for the virus rating (VR) in test 2 against Herpes simplex virus type 1 (HSV-1) in vero cells.; assay type: functional, Chlorocebus sabaeus
Oryctolagus cuniculus [5] = species: Oryctolagus cuniculus; assay: Compound was evaluated for the virus rating (VR) against Herpes simplex virus type 1 (HSV-1) in rabbit kidney cells.; assay type: functional
Oryctolagus cuniculus [6] = species: Oryctolagus cuniculus; assay: Compound was evaluated for the virus rating (VR) against Herpes simplex virus type 2 (HSV-2) in rabbit kidney cells; assay type: functional
Oryctolagus cuniculus [7] = species: Oryctolagus cuniculus; assay: Minimum inhibitory concentration against strain 377 (TK+) Herpes simplex virus type 1 (HSV-1) in rabbit kidney cells.; assay type: functional
Oryctolagus cuniculus [8] = species: Oryctolagus cuniculus; assay: Minimum inhibitory concentration against strain MS Herpes simplex virus type 2 (HSV-2) in rabbit kidney cells; assay type: functional
[9] = Oryctolagus cuniculus, read-out: MIC50

Q: How did the MIC50 (Vero [1]) turn out when Nc1nc(N)c2ncn(C3CC(O)C(CO)C3)c2n1 (configuration not stated) was run?
A: Minimum inhibitory concentration was determined for inhibition of cytopathogenic effects produced by strain MS Herpes simplex virus type 2 (HSV-2) in vero cells

Q: And the MIC50 (Vero [2])?
A: Minimum inhibitory concentration was determined for inhibition of cytopathogenic effects produced by strain MS Herpes simplex virus type 2 (HSV-2) in vero cells

Q: What does the source list for Nc1nc2c(ncn2[C@H]2C[C@@H](CO)[C@H](O)C2)c(=O)[nH]1?
A: VR (Vero [3]): 0.8; VR (Vero [4]): 1.1

Q: For Nc1nc(O)c2ncn([C@@H]3C[C@H](CO)[C@@H](O)C3)c2n1 (stereo in doubt; 4b+5b), which VR (Oryctolagus cuniculus [5]) is on record?
A: 7

Q: What about the VR (Oryctolagus cuniculus [6]) of the same compound?
A: 3.7

Q: What about the MIC50 (Oryctolagus cuniculus [7]) of the same compound?
A: 0.3 µg/mL (≈ 1.13 µM)

Q: What about the MIC50 (Oryctolagus cuniculus [8]) of the same compound?
A: 0.8 µg/mL (≈ 3.02 µM)

Q: For Nc1nc(O)c2ncn([C@@H]3C[C@H](CO)[C@@H](O)C3)c2n1 (stereo in doubt; 4b), which VR (Oryctolagus cuniculus [5]) is on record?
A: 5.9

Q: What about the VR (Oryctolagus cuniculus [6]) of the same compound?
A: 3.8

Q: And the MIC50 (Oryctolagus cuniculus [7]; [9])?
A: 0.3 µg/mL (≈ 1.13 µM)

Q: What about the MIC50 (Oryctolagus cuniculus [8]; [9]) of the same compound?
A: 0.7 µg/mL (≈ 2.64 µM)
